Results as given in patent US11312713B2, “Imidazo[4,5-C]quinoline derivatives as LRRK2 inhibitors” (Pfizer Inc., priority 2017, dated 2022).

Assays:
[1] = biological target: LRRK2, WT (GST-tagged truncated LRRK2) (Homo sapiens, UniProt Q5S007); assay: LRRK2 kinase assay (LanthaScreen), wild type; type: biochemical; details: wild type LRRK2; LanthaScreen, LRRKtide substrate
Experimental: (§1) LRRK2 kinase activity was measured using Lantha Screen technology from Invitrogen. GST-tagged truncated LRRK2 from Invitrogen (Cat #PV4874) was incubated with a fluorescein-labeled peptide substrate based upon ezrin/radixin/moesin (ERM), also known as LRRKtide (Invitrogen cat #PR8976A), in the presence of a dose response of compound. Upon completion, the assay was stopped and detected with a terbium labeled anti-phospho-ERM antibody (Invitrogen, cat #PR8975A). […] Using Echo acoustic dispensing, 60 nL of compound was transferred to a low volume Corning 384-well assay plate. 3 μL of a working solution of substrate (200 nM LRRKtide, 2 mM ATP) prepared in assay buffer (50 mM HEPES, pH 7.5, 3 mM MgCl2, with 2 mM DTT and 0.01% Brij35 added fresh) was added to the 60 nL compound assay plate. The kinase reaction was started with 3 μL of a working solution of LRRK2 enzyme at a concentration of 4 μg/m L. The final reaction concentrations were 100 nM LRRKtide, 1 mM ATP, 2 μg/mL LRRK2 enzyme and a compound dose response with a top dose of 3 μM. The reaction was allowed to progress at room temperature for 30 minutes and then stopped with the addition of 6 μL of detection buffer (20 mM Tris pH 7.6, 0.01% NP-40, 6 mM EDTA with 2 nM terbium labeled antiphospho-ERM). […] All final concentrations of substrate ATP and enzyme were the same.

[2] = biological target: mutant G2019S LRRK2 (Homo sapiens (Human), UniProt Q5S007, G2019S); assay: LRRK2 kinase assay (LanthaScreen), G2019S mutant; type: biochemical; details: G2019S mutant LRRK2; LanthaScreen, LRRKtide substrate; read-out: LRRK2, G2019S IC50
mutant G2019S LRRK2, sequence (Q5S007 whole entry G2019S): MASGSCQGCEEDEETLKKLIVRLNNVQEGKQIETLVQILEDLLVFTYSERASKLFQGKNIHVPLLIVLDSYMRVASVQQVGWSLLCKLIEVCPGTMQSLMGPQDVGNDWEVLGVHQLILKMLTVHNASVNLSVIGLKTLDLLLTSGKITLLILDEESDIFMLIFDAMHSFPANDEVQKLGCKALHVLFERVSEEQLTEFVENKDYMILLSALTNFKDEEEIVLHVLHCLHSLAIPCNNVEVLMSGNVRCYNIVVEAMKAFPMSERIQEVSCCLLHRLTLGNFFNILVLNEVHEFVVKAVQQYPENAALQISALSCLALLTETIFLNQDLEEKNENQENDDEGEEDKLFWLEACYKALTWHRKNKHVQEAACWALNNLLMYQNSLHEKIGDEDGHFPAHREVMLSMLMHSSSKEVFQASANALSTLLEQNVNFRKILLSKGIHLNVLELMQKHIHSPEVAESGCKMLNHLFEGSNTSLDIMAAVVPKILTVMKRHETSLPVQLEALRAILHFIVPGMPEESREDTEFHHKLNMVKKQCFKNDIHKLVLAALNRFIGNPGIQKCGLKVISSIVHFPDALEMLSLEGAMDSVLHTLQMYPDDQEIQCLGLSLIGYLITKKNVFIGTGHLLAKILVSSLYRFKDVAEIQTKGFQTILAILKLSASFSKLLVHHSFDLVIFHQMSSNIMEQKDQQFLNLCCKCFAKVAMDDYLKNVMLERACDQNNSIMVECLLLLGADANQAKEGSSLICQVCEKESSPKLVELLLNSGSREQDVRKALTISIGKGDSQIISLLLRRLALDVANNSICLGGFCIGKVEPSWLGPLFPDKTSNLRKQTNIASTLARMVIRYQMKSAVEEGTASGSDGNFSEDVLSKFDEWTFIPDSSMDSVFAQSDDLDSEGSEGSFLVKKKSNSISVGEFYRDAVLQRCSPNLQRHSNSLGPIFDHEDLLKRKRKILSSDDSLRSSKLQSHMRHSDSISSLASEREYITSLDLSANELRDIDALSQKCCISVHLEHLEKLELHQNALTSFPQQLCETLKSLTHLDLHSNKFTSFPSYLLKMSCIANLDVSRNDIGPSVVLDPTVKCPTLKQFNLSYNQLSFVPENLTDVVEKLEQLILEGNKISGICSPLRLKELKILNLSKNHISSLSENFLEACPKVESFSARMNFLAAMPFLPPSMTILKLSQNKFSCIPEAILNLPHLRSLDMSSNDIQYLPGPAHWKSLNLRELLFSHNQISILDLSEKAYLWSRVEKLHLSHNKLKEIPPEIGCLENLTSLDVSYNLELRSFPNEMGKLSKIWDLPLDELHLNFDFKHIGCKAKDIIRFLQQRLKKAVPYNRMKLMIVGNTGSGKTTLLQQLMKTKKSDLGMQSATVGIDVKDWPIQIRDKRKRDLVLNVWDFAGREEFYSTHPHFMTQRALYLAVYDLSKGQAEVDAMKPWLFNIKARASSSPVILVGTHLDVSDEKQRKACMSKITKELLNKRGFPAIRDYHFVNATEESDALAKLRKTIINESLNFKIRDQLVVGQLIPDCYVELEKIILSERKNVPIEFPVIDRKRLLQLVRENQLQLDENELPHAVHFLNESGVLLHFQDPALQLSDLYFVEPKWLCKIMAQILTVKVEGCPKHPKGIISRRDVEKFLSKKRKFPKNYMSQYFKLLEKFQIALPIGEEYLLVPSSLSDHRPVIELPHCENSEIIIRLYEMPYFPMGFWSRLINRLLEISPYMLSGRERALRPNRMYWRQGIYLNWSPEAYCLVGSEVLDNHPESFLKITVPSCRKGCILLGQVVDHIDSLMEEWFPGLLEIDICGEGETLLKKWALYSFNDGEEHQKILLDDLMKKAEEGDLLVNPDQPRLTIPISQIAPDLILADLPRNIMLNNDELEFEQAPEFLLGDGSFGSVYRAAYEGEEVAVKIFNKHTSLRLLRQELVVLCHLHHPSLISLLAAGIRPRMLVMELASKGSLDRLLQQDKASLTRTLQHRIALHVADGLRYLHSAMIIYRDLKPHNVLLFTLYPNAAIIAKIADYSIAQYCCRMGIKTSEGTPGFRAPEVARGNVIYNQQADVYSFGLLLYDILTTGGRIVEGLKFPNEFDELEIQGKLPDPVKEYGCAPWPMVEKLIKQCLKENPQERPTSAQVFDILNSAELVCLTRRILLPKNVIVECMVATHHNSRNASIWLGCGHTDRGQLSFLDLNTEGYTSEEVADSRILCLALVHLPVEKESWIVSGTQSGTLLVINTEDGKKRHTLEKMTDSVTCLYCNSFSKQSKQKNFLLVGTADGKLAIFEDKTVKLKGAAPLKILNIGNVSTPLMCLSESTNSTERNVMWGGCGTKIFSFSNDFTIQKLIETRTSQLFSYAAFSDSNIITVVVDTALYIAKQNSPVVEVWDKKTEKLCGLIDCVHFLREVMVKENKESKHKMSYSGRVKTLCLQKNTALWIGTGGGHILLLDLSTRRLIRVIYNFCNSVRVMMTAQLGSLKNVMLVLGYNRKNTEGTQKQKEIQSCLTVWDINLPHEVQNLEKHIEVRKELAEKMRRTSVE
Experimental: as §1

Structure (SMILES) | IC50 [1] | IC50 [2]
COc1cnn(Cc2nc3cnc4ccc(C#N)cc4c3n2[C@@H]2CCO[C@H](C)C2)c1 [Example 57, 2-[(4-methoxy-1H-pyrazol-1-yl)methyl]-1-[(2R,4R)-2-methyltetrahydro-2H-pyran-4-yl]-1H-imidazo[4,5-c]quinoline-8-carbonitrile] | 7.43 nM | 5.4 nM
C[C@@H]1C[C@H](n2c(Cc3nccs3)nc3cnc4ccc(Cl)cc4c32)CCO1 [Example 58, 8-chloro-1-[(2R,4R)-2-methyltetrahydro-2H-pyran-4-yl]-2-(1,3-thiazol-2-ylmethyl)-1H-imidazo[4,5-c]quinoline] | 5.35 nM | 3 nM
Cc1cc(Cc2nc3cnc4ccc(Cl)cc4c3n2C2CCOC(C(F)F)C2)no1 (stereo not drawn) [Example 59, 8-chloro-1-[cis-2-(difluoromethyl)tetrahydro-2H-pyran-4-yl]-2-[(5-methyl-1,2-oxazol-3-yl)methyl]-1H-imidazo[4,5-c]quinoline] | 6.6 nM | 8.16 nM
C[C@@H]1C[C@H](n2c(Cc3nccs3)nc3cnc4ccc(C#N)cc4c32)CCO1 [Example 61, 1-[(2R,4R)-2-methyltetrahydro-2H-pyran-4-yl]-2-(1,3-thiazol-2-ylmethyl)-1H-imidazo[4,5-c]quinoline-8-carbonitrile] | 5.79 nM | 4.17 nM
Cc1cn(Cc2nc3cnc4ccc(Cl)cc4c3n2[C@@H]2CCN(C)C2)nn1 [Example 62, 8-chloro-1-[(3R)-1-methylpyrrolidin-3-yl]-2-[(4-methyl-1H-1,2,3-triazol-1-yl)methyl]-1H-imidazo[4,5-c]quinoline] | 5.78 nM | 6.5 nM
C[C@@H]1C[C@H](n2c(Cc3csnn3)nc3cnc4ccc(C(F)(F)F)cc4c32)CCO1 [Example 63, 1-[(2R,4R)-2-methyltetrahydro-2H-pyran-4-yl]-2-(1,2,3-thiadiazol-4-ylmethyl)-8-(trifluoromethyl)-1H-imidazo[4,5-c]quinoline] | 6.96 nM | 3.04 nM
C[C@@H]1C[C@H](n2c(Cc3nccs3)nc3cnc4ccc(F)cc4c32)CCO1 [Example 64, 8-fluoro-1-[(2R,4R)-2-methyltetrahydro-2H-pyran-4-yl]-2-(1,3-thiazol-2-ylmethyl)-1H-imidazo[4,5-c]quinoline] | 9.8 nM | 6.87 nM
C[C@@H]1C[C@H](n2c(Cn3cncn3)nc3cnc4ccc(C(F)(F)F)cc4c32)CCO1 [Example 66, 1-[(2R,4R)-2-methyltetrahydro-2H-pyran-4-yl]-2-(1H-1,2,4-triazol-1-ylmethyl)-8-(trifluoromethyl)-1H-imidazo[4,5-c]quinoline] | 8.32 nM | 8.01 nM
Cc1cnc(Cc2nc3cnc4ccc(Cl)cc4c3n2[C@@H]2CCN(C)C2)cn1 [Example 67, 8-chloro-2-[(5-methylpyrazin-2-yl)methyl]-1-[(3R)-1-methylpyrrolidin-3-yl]-1H-imidazo[4,5-c]quinoline] | 8.03 nM | 8.55 nM
C[C@@H]1C[C@H](n2c(Cc3cscn3)nc3cnc4ccc(C(F)(F)F)cc4c32)CCO1 [Example 69, 1-[(2R,4R)-2-methyltetrahydro-2H-pyran-4-yl]-2-(1,3-thiazol-4-ylmethyl)-8-(trifluoromethyl)-1H-imidazo[4,5-c]quinoline] | 7.39 nM | 3.33 nM
Cc1nnc(Cc2nc3cnc4ccc(C(F)(F)F)cc4c3n2[C@@H]2CCO[C@H](C)C2)o1 [Example 70, 2-[(5-methyl-1,3,4-oxadiazol-2-yl)methyl]-1-[(2R,4R)-2-methyltetrahydro-2H-pyran-4-yl]-8-(trifluoromethyl)-1H-imidazo[4,5-c]quinoline] | 13.7 nM | 7.59 nM
CC1(C)CC(n2c(Cn3cncn3)nc3cnc4ccc(Cl)cc4c32)CCO1 (centres unmarked) [Example 71, 8-chloro-1-(2,2-dimethyltetrahydro-2H-pyran-4-yl)-2-(1H-1,2,4-triazol-1-ylmethyl)-1H-imidazo[4,5-c]quinoline] | 13.7 nM | 11.9 nM
COc1cnn(Cc2nc3cnc4ccc(Cl)cc4c3n2CC(C)(F)F)c1 [Example 72, 8-chloro-1-(2,2-difluoropropyl)-2-[(4-methoxy-1H-pyrazol-1-yl)methyl]-1H-imidazo[4,5-c]quinoline] | 12.1 nM | 7.17 nM
C[C@@H]1C[C@H](n2c(Cc3cnc(C(F)(F)F)cn3)nc3cnc4ccc(F)cc4c32)CCO1 [Example 73, 8-fluoro-1-[(2R,4R)-2-methyltetrahydro-2H-pyran-4-yl]-2-{[5-(trifluoromethyl)pyrazin-2-yl]methyl}-1H-imidazo[4,5-c]quinoline] | 16.9 nM | 13 nM
Cc1nnc(Cc2nc3cnc4ccc(C(F)(F)F)cc4c3n2[C@@H]2CCO[C@H](C)C2)s1 [Example 74, 1-[(2R,4R)-2-methyltetrahydro-2H-pyran-4-yl]-2-[(5-methyl-1,3,4-thiadiazol-2-yl)methyl]-8-(trifluoromethyl)-1H-imidazo[4,5-c]quinoline] | 26.1 nM | 13.5 nM
Cc1nc(Cc2nc3cnc4ccc(Cl)cc4c3n2C2CCOCC2(F)F)no1 (centres unmarked) [Example 75] | 25.7 nM | 26.5 nM
Cc1cc(Cc2nc3cnc4ccc(C(F)(F)F)cc4c3n2[C@@H]2CCO[C@H](C)C2)ncn1 [Example 76, 2-[(6-methylpyrimidin-4-yl)methyl]-1-[(2R,4R)-2-methyltetrahydro-2H-pyran-4-yl]-8-(trifluoromethyl)-1H-imidazo[4,5-c]quinoline] | 17.3 nM | 12 nM
CC(C#N)Cc1nc2cnc3ccc(Cl)cc3c2n1[C@@H]1CCO[C@H](C)C1 (stereo partly drawn) [Example 78, 3-{8-chloro-1-[(2R,4R)-2-methyltetrahydro-2H-pyran-4-yl]-1H-imidazo[4,5-c]quinolin-2-yl}-2-methylpropanenitrile] | 25.8 nM | 13.2 nM
Fc1ccc2ncc3nc(Cc4csnn4)n(C4CCC(F)C4)c3c2c1 (stereo not drawn) [Example 79, 8-fluoro-1-[cis-3-fluorocyclopentyl]-2-(1,2,3-thiadiazol-4-ylmethyl)-1H-imidazo[4,5-c]quinoline] | 9.73 nM | 9.75 nM
C[C@@H]1C[C@H](n2c(CCC#N)nc3cnc4ccc(Cl)cc4c32)CCO1 [Example 80, 3-{8-chloro-1-[(2R,4R)-2-methyltetrahydro-2H-pyran-4-yl]-1H-imidazo[4,5-c]quinolin-2-yl}propanenitrile] | 9.4 nM | 11.3 nM
Cc1nnn(Cc2nc3cnc4ccc(C(F)(F)F)cc4c3n2[C@@H]2CCO[C@H](C)C2)n1 [Example 81, 1-[(2R,4R)-2-methyltetrahydro-2H-pyran-4-yl]-2-[(5-methyl-2H-tetrazol-2-yl)methyl]-8-(trifluoromethyl)-1H-imidazo[4,5-c]quinoline] | 16.9 nM | 7.5 nM
Cc1cn(Cc2nc3cnc4ccc(Cl)cc4c3n2C2CN(C)CC2(F)F)nn1 (centres unmarked) [Example 82, 8-chloro-1-(4,4-difluoro-1-methylpyrrolidin-3-yl)-2-[(4-methyl-1H-1,2,3-triazol-1-yl)methyl]-1H-imidazo[4,5-c]quinoline] | 6.33 nM | 4.64 nM
CN1CC(n2c(Cn3cnnn3)nc3cnc4ccc(Cl)cc4c32)C(F)(F)C1 (centres unmarked) [Example 83, 8-chloro-1-(4,4-difluoro-1-methylpyrrolidin-3-yl)-2-(1H-tetrazol-1-ylmethyl)-1H-imidazo[4,5-c]quinoline] | 7.91 nM | 11.6 nM
CN1CC(n2c(Cc3ncn(C)n3)nc3cnc4ccc(Cl)cc4c32)C(F)(F)C1 (centres unmarked) [Example 84, 8-chloro-1-(4,4-difluoro-1-methylpyrrolidin-3-yl)-2-[(1-methyl-1H-1,2,4-triazol-3-yl)methyl]-1H-imidazo[4,5-c]quinoline] | 10.2 nM | 18.2 nM
CN1CC(n2c(Cn3cnnn3)nc3cnc4ccc(Cl)cc4c32)C(F)(F)C1 (centres unmarked) [Example 86, 8-chloro-1-(4,4-difluoro-1-methylpyrrolidin-3-yl)-2-(1H-tetrazol-1-ylmethyl)-1H-imidazo[4,5-c]quinoline] | 6.66 nM | 4.4 nM
Cc1cnn(Cc2nc3cnc4ccc(Cl)cc4c3n2C2CN(C)CC2(F)F)n1 (centres unmarked) [Example 87, 8-chloro-1-(4,4-difluoro-1-methylpyrrolidin-3-yl)-2-[(4-methyl-2H-1,2,3-triazol-2-yl)methyl]-1H-imidazo[4,5-c]quinoline] | 7.04 nM | 4.51 nM
Cc1nc(Cc2nc3cnc4ccc(Cl)cc4c3n2C2CN(C)CC2(F)F)no1 (centres unmarked) [Example 88, 8-chloro-1-(4,4-difluoro-1-methylpyrrolidin-3-yl)-2-[(5-methyl-1,2,4-oxadiazol-3-yl)methyl]-1H-imidazo[4,5-c]quinoline] | 9.25 nM | 8.16 nM
Cc1nnc(Cc2nc3cnc4ccc(Cl)cc4c3n2C2CN(C)CC2(F)F)s1 (centres unmarked) [Example 89, 8-chloro-1-(4,4-difluoro-1-methylpyrrolidin-3-yl)-2-[(5-methyl-1,3,4-thiadiazol-2-yl)methyl]-1H-imidazo[4,5-c]quinoline] | 13.9 nM | 8.03 nM
